The subject of data set [1] is β-catenin nuclear translocation in SH-SY5Y cells. Nature of the data set: β-catenin translocation assay. The class given is cell-based. The conditions noted are these: Homo sapiens; SH-SY5Y cells, 6 hours. How it is done: SH-SY5Y cells were seeded into a 96-well CellCarrier Ultra (Perkin Elmer) plate at a density of 1×10^5 cells/ml in complete DMEM. Sixteen hours following plating, media was changed to DMEM with 2% serum, and compound was added with a D300e Digital Dispenser (Tecan) for an incubation time of six hours. After compound incubation, media was removed, and cells were fixed with 4% PFA for 10 minutes at room temperature. Each well was washed three times with PBS-T and then blocked with buffer (1×PBS with 5% Normal Goat Serum and 0.3% Triton X-100) for 30 minutes at room temperature. β-Catenin primary antibody (Cell Signaling #8480) was added at 1:500 dilution in blocking buffer and the cells were allowed to incubate in primary overnight at 4° C. The following day, primary antibody was removed, each well was washed three times with PBS-T, and secondary antibody (1:2000 anti-rabbit AlexaFluor Plus 488 and 1:10,000 Hoechst 33342) was added and allowed to incubate for 60 minutes at room temperature protected from light. After one-hour, secondary antibody was removed and wells were washed four times with PBS-T before imaging on the Opera Phenix. Sixteen fields per well were imaged with a 20× water lens.
Images were quantified in the Columbus Image Data Storage and Analysis software. Cells were identified using the Hoechst nuclear stain to identify individual nuclei. Intensity of the nuclear stain was also used to determine cell viability (Viable cells <30% CV of Hoechst Intensity)

The target in data set [2] is GSK3α (GST-full length GSK3α) (Homo sapiens (Human), UniProt P49840). Nature of the data set: GSK3α TR-FRET kinase assay. It counts as biochemical. The conditions noted are these: GMean, geometric mean. Put shortly: (§1)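 Full-length GST-tagged human enzyme (1 nM) is exposed to test compound for 30 min before substrates are added. Phosphorylation of a primed biotinylated glycogen synthase peptide proceeds 100 min at room temperature at low ATP (4 μM α; 2 μM β) or high ATP (1 mM). Product is quantified by TR-FRET.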
A general note: In TR-FRET formats the signal depends on donor and acceptor labels being close together.

Data set [3] concerns the target GSK3b (GST-full length GSK3b) (Homo sapiens (Human), UniProt P49841). Nature of the data set: GSK3b TR-FRET kinase assay. It counts as biochemical. The conditions noted are these: GMean, geometric mean. Put shortly:
as §1

Data set [4] is described as follows: Microsomal stability (MIC), mouse. As to conditions: mouse liver microsomes; for half-life at 1 μM: CD-1, read-out: Microsome stability (mouse), in vitro T1/2. It counts as in vitro ADME, mouse (CD-1). The protocol:
(§2) Stability of compound in liver microsomes was tested in duplicate by incubating compound at 1 μM for 60 minutes at 37° C. Compound level at 60 minutes was compared to level at 0 minutes, and percent remaining was calculated. Assay Parameters
(§3) Available species: human and mouse (CD-1). Compound requirements: 5 μL of a 10 mM DMSO solution. Incubation time: 60 minutes at 37° C. Test Concentration: 1 μM.
(§4) Microsomes with NADPH without compound-matrix interference. Microsomes plus compound without NADPH—non-enzymatic instability.
On the technique in general: Microsomes from liver hold many membrane-bound enzymes, among them those of drug oxidation.

The nature of data set [5]: Microsomal stability (MIC), human. The class given is in vitro ADME. The conditions noted are these: human liver microsomes. The protocol:
as §2, §3, §4

The test system of data set [6] is MDR1-MDCK cell monolayers. Nature of the data set: MDR1/MDCK assay (blood-brain barrier penetration potential). It counts as in vitro ADME. The conditions noted are these: 5 μM, pH 7.4, 120 minutes. How it is done:
The MDR1/MDCK assay is run at Absorption Systems. This assay is used to determine the blood-brain barrier (BBB) penetration potential of a test compound using MDR1-MDCK cell monolayers. Catalog number EA203.
• Test compound at 5 μM in HBSSg with maximum DMSO concentration not greater than 1%.
• Confluent monolayers of MDR1-MDCK cells, 7 to 11 days old.
• Receiver well with 1% BSA in modified Hanks buffer (HBSSg) • Apical and basolateral side at pH 7.4 • Dose two monolayers in each direction (N=2) • Dose apical side for (A to B) assessment • Dose basolateral side for (B to A) assessment • Sample both apical and basolateral sides at 120 minutes • Determine the concentrations of test compound using a generic LC-MS/MS method with a minimum 4 point calibration curve.
• The quality of the cell monolayer batch is verified using control compounds before monolayers are released for use • The quality of each monolayer used in the assay is verified by a TEER measurement and by calculating the Papp for a control compound.

Where [7] appears, read: GSK3-A (TR-FRET 1 mM ATP), IC50, 1 mM ATP.
The mark [8] stands for this setting: GSK3-B (TR-FRET 1 mM ATP), IC50, 1 mM ATP.
Setting [9] is: read-out: GSK3-A (TR-FRET 1 mM ATP), IC50, 1 mM ATP.
Where [10] appears, read: read-out: GSK3-B (TR-FRET 1 mM ATP), IC50, 1 mM ATP.

Like-named read-outs stand apart in the source and are kept apart here.

GSK3b (GST-full length GSK3b), sequence (P49841 whole entry): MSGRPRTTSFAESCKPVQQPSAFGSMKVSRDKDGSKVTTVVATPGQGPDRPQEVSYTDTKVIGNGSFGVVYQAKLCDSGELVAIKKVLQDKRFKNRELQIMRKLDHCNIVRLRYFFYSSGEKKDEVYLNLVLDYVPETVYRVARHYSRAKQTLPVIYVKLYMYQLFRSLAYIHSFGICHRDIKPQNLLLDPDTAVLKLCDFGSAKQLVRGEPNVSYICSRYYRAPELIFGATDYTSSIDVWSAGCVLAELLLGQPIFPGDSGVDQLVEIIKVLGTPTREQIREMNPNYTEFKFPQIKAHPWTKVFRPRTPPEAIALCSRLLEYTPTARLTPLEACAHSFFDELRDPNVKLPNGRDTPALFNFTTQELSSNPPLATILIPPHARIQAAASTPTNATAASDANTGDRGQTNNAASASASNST
GSK3α (GST-full length GSK3α), sequence (P49840 whole entry): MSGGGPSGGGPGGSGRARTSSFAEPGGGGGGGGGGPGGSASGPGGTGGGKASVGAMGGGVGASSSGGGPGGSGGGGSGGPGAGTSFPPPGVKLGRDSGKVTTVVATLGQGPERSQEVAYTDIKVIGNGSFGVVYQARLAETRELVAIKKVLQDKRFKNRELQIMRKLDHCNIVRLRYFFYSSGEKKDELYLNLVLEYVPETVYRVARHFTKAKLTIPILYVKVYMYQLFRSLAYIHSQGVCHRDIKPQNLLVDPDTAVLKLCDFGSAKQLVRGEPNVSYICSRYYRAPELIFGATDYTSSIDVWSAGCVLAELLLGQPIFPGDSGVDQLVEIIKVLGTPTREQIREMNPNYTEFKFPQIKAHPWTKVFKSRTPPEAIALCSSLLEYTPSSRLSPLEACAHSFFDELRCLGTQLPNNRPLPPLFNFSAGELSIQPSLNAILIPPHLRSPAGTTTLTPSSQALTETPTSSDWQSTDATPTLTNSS

In data set [1], `N#Cc1ccc2[nH]c(O)c(-c3ccc(CN4CCOCC4)cn3)c2c1` [AZ1080, AZD1080, reference compound] yielded an IC50 of 3 µM.
With `Cc1[nH]nc2c1C1(CN(S(=O)(=O)CC3CC3)C1)C1=C(CC(C)(C)CC1=O)N2` [Compound 107828], the IC50 was no more than 0.1 µM in data set [2] (setting [7]) and 0.1 to 1 µM in data set [3] (setting [8]). In addition, in data set [4], the half-life at 1 μM worked out at 6.49 min.
For `CC(C)(C)Cc1[nH]nc2c1C1(CN(S(=O)(=O)CC3CC3)C1)C1=C(CC3(CCC3)CC1=O)N2` [Compound 107829], the IC50 in data set [2] (setting [9]) lay in the range of 1 to 5 µM; in data set [3] (setting [10]) it was 0.1 to 1 µM. Further, in data set [5], the “Microsome stability (human); in vitro T1/2” value (shortened to “Microsome stability (human)”) is 8.877 min. Moreover, the “Microsome stability (mouse); in vitro T1/2” value (shortened to “Microsome stability (mouse)”) in data set [4] is listed as 2.084 min.
For the compound `CC(C)(C)Cc1[nH]nc2c1C(C)(c1cccc(S(=O)(=O)CC3CC3)c1)C1=C(CC(C)(C)NC1=O)N2` (stereo not shown) [Compound 108005], the IC50 in data set [2] (setting [9]) and in data set [3] (setting [10]) was 0.1 to 1 µM in each case. For the same compound, the “Microsome stability (mouse)” value in data set [4] is 0.69 min.
Take `COc1cncc(F)c1-c1cccc([C@]2(C)C3=C(CC(C)(C)CC3=O)Nc3n[nH]c(CC(C)(C)C)c32)c1` [Compound 108954]: the results for the IC50 in data set [2] (setting [7]) and in data set [3] (setting [8]) were 1 to 5 µM and 0.1 to 1 µM, respectively. The half-life at 1 μM in data set [4] was 8.59 min.
The corresponding values for `CC1(C)CC(=O)C2=C(C1)Nc1n[nH]c(C3CC3)c1C21CN(S(=O)(=O)CC2CC2)C1` [Compound 109152] are 0.1 to 1 µM, 0.1 to 1 µM and 0.97 min.
Take `CC(C)(C)Cc1[nH]nc2c1C(C)(c1cccc(S(C)(=O)=O)c1)C1=C(CC(C)(C)CC1=O)N2` (stereo not shown) [Compound 114687]: the IC50 in data set [2] (setting [9]) is 0.1 to 1 µM; in data set [3] (setting [10]), no more than 0.1 µM. In addition, the “Microsome stability (human)” value in data set [5] amounted to 12.3 min. Moreover, the “Microsome stability (mouse)” value in data set [4] was found to be 6.4 min.
In the case of `CN1CC2(C3=C(CC(C)(C)CC3=O)Nc3n[nH]c(C4CC(F)(F)C4)c32)c2ccccc21` (stereo not shown) [Compound 119048], the IC50 in data set [2] (setting [9]) is 1 to 5 µM; in data set [3] (setting [10]), 0.1 to 1 µM. For the same compound, the “Microsome stability (human)” value in data set [5] stood at 1.4 min. Also, the “Microsome stability (mouse)” value in data set [4] worked out at 0.5 min. For the same compound, in data set [6], the “MDCK permeability (MDR1-MDCK); Mean; Papp Ratio (B − A/A − B) (efflux ratio)” value turned out to be 42.3. Also, the “MDCK permeability (MDR1-MDCK); Mean; Papp (A − B)” value in data set [6] (A to B) was 1.65 10^−6 cm/s. The “MDCK permeability (MDR1-MDCK); Mean; Papp (B − A)” value in data set [6] (B to A) was 70 10^−6 cm/s.

The values above are taken from patent publication US20250313563A1, “GLYCOGEN SYNTHASE KINASE 3 INHIBITORS AND USES THEREOF” (The Broad Institute, Inc., priority 2022, published 2025).
